Values of other authors, collected in paper PMC10112232, “Comparison of Toxicities among Different Bumped Kinase Inhibitor Analogs for Treatment of Cryptosporidiosis” (Antimicrobial Agents and Chemotherapy, 2023).

Key:
[1] = molecular target: T1, C. parvum calcium dependent protein kinase 1 (CpCDPK1) (Cryptosporidium parvum, UniProt A3FQ16); parameters: method as in PMID 30830766; settings: read-out: CpCDPK1 IC50; cited from earlier work
T1 sequence (A3FQ16 1-538): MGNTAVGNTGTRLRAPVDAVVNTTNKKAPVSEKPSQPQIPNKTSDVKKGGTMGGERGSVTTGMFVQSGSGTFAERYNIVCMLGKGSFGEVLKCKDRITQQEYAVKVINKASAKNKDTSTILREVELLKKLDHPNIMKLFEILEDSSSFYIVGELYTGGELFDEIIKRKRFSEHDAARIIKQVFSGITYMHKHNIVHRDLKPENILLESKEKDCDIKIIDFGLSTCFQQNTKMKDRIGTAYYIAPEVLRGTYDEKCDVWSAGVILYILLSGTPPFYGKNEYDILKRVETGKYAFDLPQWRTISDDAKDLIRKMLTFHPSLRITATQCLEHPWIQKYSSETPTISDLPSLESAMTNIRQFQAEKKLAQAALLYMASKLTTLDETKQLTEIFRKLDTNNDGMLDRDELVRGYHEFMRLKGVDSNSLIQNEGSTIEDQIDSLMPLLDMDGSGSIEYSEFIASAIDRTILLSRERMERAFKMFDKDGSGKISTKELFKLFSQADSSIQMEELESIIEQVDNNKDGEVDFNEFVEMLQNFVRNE

HepG2 cells = system: HepG2 cells; parameters: method as in PMID 30830766; settings: cited from earlier work

## CCOc1ccc2cc(-c3nn(C(C)(C)CCO)c(N)c3C(N)=O)ccc2c1 [BKI-1770]
[1]
  IC50: 2 nM
HepG2 cells
  CC50: > 80 µM
